Data: the NIST ThermoML archive (doi:10.1016/j.jct.2013.01.013)
Numbers after ± are expanded uncertainties.

Legend:
[1] = 101 kPa, Liquid; for viscosity: Capillary tube (Ostwald / Ubbelohde) method; for speed of sound: Linear variable-path acoustic interferometer; for mass density: Pycnometric method
[2] = xn = mol fraction of the nth substance listed; details: 101 kPa, Liquid, x2 = 0; for viscosity: Capillary tube (Ostwald / Ubbelohde) method; for speed of sound: Linear variable-path acoustic interferometer; for mass density: Pycnometric method

## C=C(C)C(=O)OC [methyl methacrylate]
[1]; 288.15 K
  viscosity: 0.634 ± 0.0056 mPa·s
  speed of sound: 1216.8 ± 1.4 m/s
  mass density: 949.1 ± 0.26 kg/m3
[1]; 293.15 K
  viscosity: 0.5903 ± 0.0053 mPa·s
  speed of sound: 1200.5 ± 1.4 m/s
  mass density: 943.37 ± 0.25 kg/m3
[1]; 298.15 K
  viscosity: 0.5544 ± 0.005 mPa·s
  speed of sound: 1183.6 ± 1.4 m/s
  mass density: 937.63 ± 0.25 kg/m3
[1]; 303.15 K
  viscosity: 0.5251 ± 0.0048 mPa·s
  speed of sound: 1168.5 ± 1.4 m/s
  mass density: 931.89 ± 0.26 kg/m3
[1]; 308.15 K
  viscosity: 0.496 ± 0.0046 mPa·s
  speed of sound: 1152.6 ± 1.3 m/s
  mass density: 926.15 ± 0.27 kg/m3
[1]; 313.15 K
  viscosity: 0.4723 ± 0.0044 mPa·s
  speed of sound: 1135.4 ± 1.3 m/s
  mass density: 920.41 ± 0.28 kg/m3
[1]; 318.15 K
  viscosity: 0.4499 ± 0.0042 mPa·s
  speed of sound: 1118.3 ± 1.3 m/s
  mass density: 914.66 ± 0.29 kg/m3

## CC(=O)N(C)C [N,N-dimethylethanamide] + C=C(C)C(=O)OC
[2]; 288.15 K
  viscosity: 1.15 ± 0.0095 mPa·s
  speed of sound: 1500.2 ± 1.6 m/s
  mass density: 945.5 ± 0.27 kg/m3
[2]; 293.15 K
  viscosity: 1.038 ± 0.0086 mPa·s
  speed of sound: 1482.6 ± 1.6 m/s
  mass density: 941 ± 0.26 kg/m3
[2]; 298.15 K
  viscosity: 0.9443 ± 0.0079 mPa·s
  speed of sound: 1462.1 ± 1.6 m/s
  mass density: 936.5 ± 0.27 kg/m3
[2]; 303.15 K
  viscosity: 0.8792 ± 0.0075 mPa·s
  speed of sound: 1441.8 ± 1.6 m/s
  mass density: 932 ± 0.28 kg/m3
[2]; 308.15 K
  viscosity: 0.8179 ± 0.007 mPa·s
  speed of sound: 1420.7 ± 1.6 m/s
  mass density: 927.5 ± 0.29 kg/m3
[2]; 313.15 K
  viscosity: 0.7696 ± 0.0067 mPa·s
  speed of sound: 1402.6 ± 1.6 m/s
  mass density: 923 ± 0.3 kg/m3
[2]; 318.15 K
  viscosity: 0.7346 ± 0.0064 mPa·s
  speed of sound: 1383.5 ± 1.5 m/s
  mass density: 918.5 ± 0.31 kg/m3

## CN(C)C=O [dimethylformamide]
[1]; 288.15 K
  viscosity: 0.9452 ± 0.0081 mPa·s
  speed of sound: 1503.3 ± 1.7 m/s
  mass density: 953.61 ± 0.29 kg/m3
[1]; 293.15 K
  viscosity: 0.8685 ± 0.0075 mPa·s
  speed of sound: 1485.8 ± 1.7 m/s
  mass density: 949.1 ± 0.28 kg/m3
[1]; 298.15 K
  viscosity: 0.8123 ± 0.0071 mPa·s
  speed of sound: 1469.5 ± 1.6 m/s
  mass density: 944.6 ± 0.29 kg/m3
[1]; 303.15 K
  viscosity: 0.7647 ± 0.0067 mPa·s
  speed of sound: 1448.8 ± 1.6 m/s
  mass density: 940.1 ± 0.3 kg/m3
[1]; 308.15 K
  viscosity: 0.7189 ± 0.0064 mPa·s
  speed of sound: 1429.1 ± 1.6 m/s
  mass density: 935.6 ± 0.31 kg/m3
[1]; 313.15 K
  viscosity: 0.6851 ± 0.0061 mPa·s
  speed of sound: 1411.5 ± 1.6 m/s
  mass density: 931.1 ± 0.32 kg/m3
[1]; 318.15 K
  viscosity: 0.6642 ± 0.006 mPa·s
  speed of sound: 1392.6 ± 1.6 m/s
  mass density: 926.6 ± 0.33 kg/m3

## CC(=O)N(C)C [N,N-dimethylethanamide]
[1]; 288.15 K
  viscosity: 1.15 ± 0.0095 mPa·s
  speed of sound: 1500.2 ± 1.6 m/s
  mass density: 945.5 ± 0.27 kg/m3
[1]; 293.15 K
  viscosity: 1.038 ± 0.0086 mPa·s
  speed of sound: 1482.6 ± 1.6 m/s
  mass density: 941 ± 0.26 kg/m3
[1]; 298.15 K
  viscosity: 0.9443 ± 0.0079 mPa·s
  speed of sound: 1462.1 ± 1.6 m/s
  mass density: 936.5 ± 0.27 kg/m3
[1]; 303.15 K
  viscosity: 0.8792 ± 0.0075 mPa·s
  speed of sound: 1441.8 ± 1.6 m/s
  mass density: 932 ± 0.28 kg/m3
[1]; 308.15 K
  viscosity: 0.8179 ± 0.007 mPa·s
  speed of sound: 1420.7 ± 1.6 m/s
  mass density: 927.5 ± 0.29 kg/m3
[1]; 313.15 K
  viscosity: 0.7696 ± 0.0067 mPa·s
  speed of sound: 1402.6 ± 1.6 m/s
  mass density: 923 ± 0.3 kg/m3
[1]; 318.15 K
  viscosity: 0.7346 ± 0.0064 mPa·s
  speed of sound: 1383.5 ± 1.5 m/s
  mass density: 918.5 ± 0.31 kg/m3

## CN(C)C=O [dimethylformamide] + C=C(C)C(=O)OC
[2]; 288.15 K
  viscosity: 0.9452 ± 0.0081 mPa·s
  speed of sound: 1503.3 ± 1.7 m/s
  mass density: 953.61 ± 0.29 kg/m3
[2]; 293.15 K
  viscosity: 0.8685 ± 0.0075 mPa·s
  speed of sound: 1485.8 ± 1.7 m/s
  mass density: 949.1 ± 0.28 kg/m3
[2]; 298.15 K
  viscosity: 0.8123 ± 0.0071 mPa·s
  speed of sound: 1469.5 ± 1.6 m/s
  mass density: 944.6 ± 0.29 kg/m3
[2]; 303.15 K
  viscosity: 0.7647 ± 0.0067 mPa·s
  speed of sound: 1448.8 ± 1.6 m/s
  mass density: 940.1 ± 0.3 kg/m3
[2]; 308.15 K
  viscosity: 0.7189 ± 0.0064 mPa·s
  speed of sound: 1429.1 ± 1.6 m/s
  mass density: 935.6 ± 0.31 kg/m3
[2]; 313.15 K
  viscosity: 0.6851 ± 0.0061 mPa·s
  speed of sound: 1411.5 ± 1.6 m/s
  mass density: 931.1 ± 0.32 kg/m3
[2]; 318.15 K
  viscosity: 0.6642 ± 0.006 mPa·s
  speed of sound: 1392.6 ± 1.6 m/s
  mass density: 926.6 ± 0.33 kg/m3
